Assays:
[1] = patients with PAH; cited from earlier work
[2] = long-term treatment, patient with plastic bronchitis following Fontan; cited from earlier work
BCRP transporters = target: T1, BCRP transporters (Homo sapiens, UniProt Q9UNQ0); assay: Drug-drug interaction, pharmacokinetics of rosuvastatin; type: in vivo; conditions: for Drug-Drug Interaction observed: in vivo
T1 construct: from tissue; host or cells: in vivo: gut, liver canalicular membrane, kidney
T1 sequence (Q9UNQ0 1-655): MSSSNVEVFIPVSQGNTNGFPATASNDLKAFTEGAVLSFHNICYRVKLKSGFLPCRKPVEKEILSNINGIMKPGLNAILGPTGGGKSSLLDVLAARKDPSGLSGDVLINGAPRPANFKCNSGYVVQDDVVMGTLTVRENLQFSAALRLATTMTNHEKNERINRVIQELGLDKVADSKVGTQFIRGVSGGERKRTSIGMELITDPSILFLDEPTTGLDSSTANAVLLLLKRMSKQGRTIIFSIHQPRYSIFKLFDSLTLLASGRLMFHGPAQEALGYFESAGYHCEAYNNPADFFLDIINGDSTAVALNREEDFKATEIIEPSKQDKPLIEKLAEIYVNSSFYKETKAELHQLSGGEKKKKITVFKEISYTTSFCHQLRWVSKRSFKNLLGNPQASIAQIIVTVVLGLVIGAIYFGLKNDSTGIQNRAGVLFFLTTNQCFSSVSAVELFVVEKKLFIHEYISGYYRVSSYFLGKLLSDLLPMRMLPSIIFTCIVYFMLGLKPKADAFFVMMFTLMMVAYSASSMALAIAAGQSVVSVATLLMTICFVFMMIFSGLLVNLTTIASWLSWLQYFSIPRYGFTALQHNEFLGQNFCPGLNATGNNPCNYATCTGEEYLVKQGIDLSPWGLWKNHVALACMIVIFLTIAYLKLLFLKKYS
Description: BCRP is an efflux pump located in the gut, liver canalicular membrane, and kidney, and is exposed to intracellular drug concentrations in the liver and the kidney.

human PXR = target: T2, human PXR (Homo sapiens, UniProt O75469); assay: Activation of human PXR; type: cell-based
T2 sequence (O75469 1-434): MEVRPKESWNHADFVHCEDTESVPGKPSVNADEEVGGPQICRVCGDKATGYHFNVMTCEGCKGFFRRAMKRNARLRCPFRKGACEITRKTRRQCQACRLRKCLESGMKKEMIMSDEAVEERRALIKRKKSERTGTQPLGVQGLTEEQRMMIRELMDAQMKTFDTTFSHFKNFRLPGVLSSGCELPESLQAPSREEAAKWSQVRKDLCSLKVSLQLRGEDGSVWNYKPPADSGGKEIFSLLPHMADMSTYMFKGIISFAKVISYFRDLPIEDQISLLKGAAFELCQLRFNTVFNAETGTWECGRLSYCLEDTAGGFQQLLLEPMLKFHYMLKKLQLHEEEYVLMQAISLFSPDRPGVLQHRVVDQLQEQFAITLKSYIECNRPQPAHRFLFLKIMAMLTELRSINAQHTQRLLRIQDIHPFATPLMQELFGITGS
Description: In human hepatocytes, both compounds elicited concentration-dependent increases in CYP3A4 mRNA and enzyme activity.

[3] = Example 1: dose-response (Emax) analysis of hemoglobin change, pooled Phase I studies in healthy volunteers; type: in vivo, human
Description: Hemoglobin measurements were pooled from 3 Phase I clinical studies in healthy volunteers: • Study AC-055-102: Investigation of the PK, PD, safety and tolerability of macitentan in male subjects (the study protocol is described in the following publication: Sidharta et al., Safety, tolerability, pharmacokinetics, and pharmacodynamics of macitentan, an endothelin receptor antagonist, in an ascending multiple-dose study in healthy subjects. J. Clin. Pharmacol. (2013), 53(11), 1131-1138) • Study AC-055-116: Investigation of the PK, PD, safety and tolerability of macitentan in male Japanese subjects (the study protocol is described in the following publication: Yokoyama et al., Tolerability, Safety, Pharmacokinetics, and Pharmacodynamics of Macitentan, a New Endothelin Receptor Antagonist, in Healthy Japanese Male Subjects. Rinsho yakuri/Japanese Journal of Clinical Pharmacology and Therapeutics (2016), 47, 143-150) • Study AC-055-117: Investigation of the PK, PD, safety and tolerability of macitentan in male Korean subjects (the study protocol is described in the following publication: Ahn et al., Pharmacokinetic-pharmacodynamic relationships of macitentan, a new endothelin receptor antagonist, after multiple dosing in healthy Korean subjects, Am. […]
Hemoglobin concentrations measured in the morning of Day 11 of macitentan treatment and at baseline on Day −1 were used in the analysis. […]

[4] = Example 2: Phase 1 safety study of 75 mg qd macitentan in healthy male subjects, with and without up-titration; type: in vivo, human
Procedure: This is a single-sequence, open-label, single-center, Phase 1 study in healthy male subjects. The study assessed the effect of 75 mg qd administration of macitentan. The study includes a screening phase of 21 days before the first macitentan administration, followed by an open-label treatment phase. Randomization was not used and subjects received the same treatment.
29 subjects were enrolled.
Administration of 75 mg qd macitentan started on Day 1. Macitentan was administered every day in the morning between 8:00 and 11:00 with 240 mL of noncarbonated water. One 75-mg macitentan film-coated tablet was thus administered as multiple qd oral doses under fed conditions.
Subjects were planned to take macitentan 75 mg for 15 days. However the study was interrupted on the morning of day 8, i.e. when subjects had received 7 doses of macitentan 75 mg.
Macitentan was administered in an up-titration regimen in the morning between 8:00 and 11:00 with 240 mL of noncarbonated water. One macitentan film-coated tablet (10 mg, 37.5 mg or 75 mg) was administered as multiple qd oral doses under fed conditions on Days 1-9 and Days 11-12, and under fasted conditions on Days 10 and 13. The up-titration regimen consists of 2 qd doses of 10 mg macitentan and 3 qd doses of 37.5 mg macitentan followed by 8 qd doses of 75 mg macitentan. On Days −4, −3, 10 and 13 (i.e., the days when dosing occurred under fasted conditions), no fluid intake apart from the water taken at the time of macitentan administration was allowed from 1 hour before until 1 hour after administration of macitentan.
All reported AEs with onset during the treatment phase were included in the analysis. The effects on cardiovascular variables were evaluated and the following variables were collected: PR (ms), QRS (ms), QT (ms), QTcB (ms), QTcF (ms), heart rate (bpm), and RR. The normal range for vital signs is defined as follows: • Systolic blood pressure: 100-140 mmHg • Diastolic blood pressure: 60-90 mmHg • Pulse rate: 45-90 bpm • Respiratory rate: 8-20 per minute • Body temperature: 35.0° C. to 37.5° C.
An AE is any untoward medical occurrence, i.e., any unfavorable and unintended sign (including an abnormal finding), symptom, or disease temporally associated with the use of macitentan. A treatment-emergent AE is any occurrence that is new in onset or aggravated in severity from the baseline condition. The following are used to assess all AEs: • Related: There is a reasonable causal relationship between macitentan administration and the AE. • Not Related: There is not a reasonable causal relationship between macitentan administration and the AE.
An assessment of AE severity grade was made using the following general categorical descriptors: • Mild: Awareness of symptoms that are easily tolerated, causing minimal discomfort and not interfering with everyday activities. • Moderate: Sufficient discomfort is present to cause interference with normal activity. • Severe: Extreme distress, causing significant impairment of functioning or incapacitation. Prevents normal everyday activities.

[5] = cited from earlier work
[6] = design: key to Frequency observed with macitentan 10 mg: Photophobia: Very common: very common (≥1/10); Common: common (≥1/100 to <1/10); Uncommon: uncommon (≥1/1,000 to <1/100); rare (≥1/10,000 to <1/1,000); very rare (<1/10,000); Not known: not known (cannot be estimated from the available data); conditions: cited from earlier work
ET receptors = conditions: cited from earlier work
[7] = early postoperative phase; cited from earlier work
[8] = preoperative Fontan candidates with mild pulmonary hypertension; cited from earlier work
[9] = 75 mg qd without up-titration, 6 subjects
[10] = 75 mg qd, healthy male subjects
[11] = up-titration 10/37.5/75 mg qd, 6 subjects

## COc1ccccc1Oc1c(NS(=O)(=O)c2ccc(C(C)(C)C)cc2)nc(-c2ncccn2)nc1OCCO [bosentan]
[1]
  exercise capacity, functional class, health-related quality of life and haemodynamic parameters (including PVR and PAP): improve
[2]
  symptoms, aortic oxygen saturation, functional class, exercise capacity, Borg dyspnoea index, mean PAP, pulmonary blood flow and PVR: improved

## CCCNS(=O)(=O)Nc1ncnc(OCCOc2ncc(Br)cn2)c1-c1ccc(Br)cc1 [macitentan, propylsulfamic acid [5-(4-bromo-phenyl)-6-[2-(5-bromo-pyrimidin-2-yloxy)-ethoxy]-pyrimidin-4-yl]-amide]
BCRP transporters
  Drug-Drug Interaction observed: No Drug-Drug Interaction
BCRP transporters; macitentan 10 mg per day o.d.
  effect on the pharmacokinetics of 1 mg rosuvastatin: has not shown any effect
Human PXR
  EC50: 1.1 to 1.2 µM
[3]; Day 11 vs baseline Day -1, nonlinear regression
  maximum effect on hemoglobin decrease (Emax): around 1.23 g/dL
[3]; FIG. 1
  dose at which the effect on hemoglobin decrease plateaus: 10 mg
[4]; [9]
  N with Flushing/feeling of warmth/redness of face and/or hands (No titration): 4
  N with Headache (No titration): 6
  N with Photophobia (No titration): 3
  N with Sinusitis/rhinitis/nasal congestion (No titration): 5
  Severity of AEs (No titration): Photophobia: All mild
  Severity of AEs (No titration): Sinusitis/rhinitis/nasal congestion: All mild
[4]; [10]
  overall severity of AEs: mainly mild
  reduction in hemoglobin: ≤ 2 g/dL
  study day from which AEs were reported: ≥ 2 days
  vital signs, ECG and lab parameters: no clinically significant changes
[4]; Four days after stopping macitentan
  resolution of AEs: most of the AEs resolved
[4]; [11]
  Duration of AE (With titration): Sinusitis/rhinitis/nasal congestion: < 24 h
  N with Flushing/feeling of warmth/redness of face and/or hands (With titration): 0
  N with Headache (With titration): 6
  N with Photophobia (With titration): 0
  N with Sinusitis/rhinitis/nasal congestion (With titration): 1
  Severity of AEs (With titration): Sinusitis/rhinitis/nasal congestion: Mild, less than
[4]; up-titration regimen cohort
  completion of treatment: All subjects completed treatment
[4]; up-titration vs no up-titration
  tolerability of 75 mg macitentan with up-titration regimen: improved tolerability
[5]; in humans, day of administration
  steady state is reached: by the third day
[5]; in humans
  half-life: about 16 hours
[5]; in vivo
  absorption into the plasma: absorbed slowly
[6]
  Frequency observed with macitentan 10 mg: Flushing/feeling of warmth/redness of face and/or hands: Uncommon (uncommon (≥1/1,000 to <1/100))
  Frequency observed with macitentan 10 mg: Headache: Very common (very common (≥1/10))
  Frequency observed with macitentan 10 mg: Photophobia: Not known
  Frequency observed with macitentan 10 mg: Sinusitis/rhinitis/nasal congestion: Common (common (≥1/100 to <1/10))

## NS(=O)(=O)Nc1ncnc(OCCOc2ncc(Br)cn2)c1-c1ccc(Br)cc1 [ACT-132577]
BCRP transporters
  Drug-Drug Interaction observed: No Drug-Drug Interaction
Human PXR
  EC50: 7.2 to 8.7 µM
[5]; in humans
  half-life: approximately 48 hours
[5]; in vivo
  plasma concentrations compared with macitentan: higher plasma concentrations than macitentan
[5]; metabolite after macitentan administration
  time of peak plasma concentration after the first dose: about 30 hours
ET receptors
  affinity for the ET receptors compared with parent compound: lower affinity

## CCCCC[C@H](O)/C=C/[C@@H]1[C@H]2C/C(=C/CCCC(=O)O)O[C@H]2C[C@H]1O [epoprostenol]
[7]
  rebound effect after inhaled nitric oxide (NO) cessation: prevent the rebound effect

## CC#CCC(C)[C@H](O)/C=C/[C@@H]1[C@H]2c3cccc(CCCC(=O)O)c3O[C@H]2C[C@H]1O (mixture of isomers) [beraprost]
[8]
  effect on mean pulmonary artery pressure (PAP) and PVR: reduces

Source: patent US20230000865A1, “PHARMACEUTICAL COMPOSITION FOR THE TREATMENT OF PULMONARY VASCULAR DISEASE AND/OR CARDIAC DYSFUNCTION IN FONTAN-PALLIATED PATIENTS” (ACTELION PHARMACEUTICALS LTD, priority 2019, published 2023)
